Laboratory results taken from paper PMC9098913, “In vitro reconstitution of Escherichia coli divisome activation” (Nature Communications, 2022).
“And” between values parts separate entries of the source, which are not always exact repeats. Equal entries are not always repeated. Where two headings read alike, the source gives them in different places.

Assays:
FtsZ filaments = assay: Slope of linear regression FtsZ vs FtsA intensity (packing of FtsA below FtsZ filaments); type: biochemical, E. coli; conditions: for Slope of linear regression: Fig. S2h
Text: While fluorescence microscopy cannot resolve molecular assemblies of these small dimensions, a higher packing density of FtsA R286W below FtsZ filaments could explain the enhanced colocalization with FtsZ. To test this hypothesis, we analysed the pixel-by-pixel relationship between the fluorescence intensities of FtsZ and FtsA in dual-colour fluorescence time-lapse movies. […] At low FtsA concentrations, we found the slopes for both proteins to be similar.

[1] = Single-molecule diffusion coefficient of FtsA on the membrane; conditions: for Diffusion Coefficient: single-particle tracking, n = 3; for Single Molecule Diffusion Constant, mean: mean of Exp. 1-3, n = 3, Fig. 3b
Protocol: First, we studied the behaviour of single FtsA proteins on the membrane surface.
After 5 min of incubation, single molecule time lapses were acquired every 125, 250, 500, and 1000 and 2000 ms, with an exposure time of 50 ms. Subsequently, the bulk concentration of FtsA was increased to 0.2/0.4/0.8 µM and time lapses were repeated as described above.
Single molecules of FtsA or FtsZ were tracked using the TrackMate plugin from ImageJ[43]. To obtain the residence time of FtsZ and FtsA, we performed a residence time analysis as described before[40],[47]. Shortly, single molecules were imaged at different acquisition rates (0.1–2 s) and the lifetime of the molecules was extracted from each data set. To account for photobleaching effect, the obtained lifetimes were plotted against the acquisition rate. […] Furthermore, we extracted the diffusion coefficient of FtsA single molecules at increasing concentrations. For this, we filtered the obtained data, by considering only trajectories which are present on the membrane for more than 0.4 s. […] Subsequently, the diffusion coefficient of FtsA molecules was estimated by fitting an MSD curve to each individual trajectory.

FtsZ = conditions: for Pearson correlation coefficient (PCC) FtsA/FtsZ: 1.25 µM FtsZ, mean ± s.d.
Protocol: Additionally, the reaction chamber contained 4 mM ATP and 4 mM GTP, as well as a scavenging system to minimize photobleaching effects: 30 mM d-glucose, 0.050 mg ml^−1 Glucose Oxidase, 0.016 mg ml^−1 Catalase, 1 mM DTT and 1 mM Trolox. Prior addition of all components a corresponding buffer volume was removed from the chamber to obtain a total reaction volume of 100 µl. The dynamic protein pattern was monitored by time-lapse TIRF microscopy at one frame per 2 s and 50 ms exposure time.
Time-lapse videos were first intensity-corrected and contrast-enhanced to avoid bleaching effects and simplify subsequent analysis. To remove contributions of X–Y drift, the videos were processed with the Linear Stack Alignment with SIFT plugin. […] Subsequently, regions of interest (ROIs) in the center of the stacks were chosen for colocalization analysis. The Pearson’s correlation coefficient (PCC) was quantified with the Image CorrelationJ 1o plugin. To extract information about the relative ratio of FtsZ/FtsA molecules (slope of linear regression), we also used the Image CorrelationJ 1o plugin. As an output, the plugin provides a scatterplot of FtsZ vs FtsA intensities, to which we fitted a linear slope y=k⋅x+d , where k is the slope and d the offset. The slope was used as an estimate for the ratio of FtsA molecules below FtsZ filaments[42].

[2] = Nucleotide effect on membrane binding of FtsA WT (normalized intensity); conditions: Fig. S3m

## FtsA WT: wild-type E. coli actin-homologue FtsA, membrane anchor of FtsZ
FtsZ filaments; 0.1 µM FtsA, mean
  Slope of linear regression FtsZ vs FtsA: 0.64
FtsZ filaments; 0.1µM, replicate column 1
  Slope of linear regression, mean of single experiment: 0.68
FtsZ filaments; 0.1µM, replicate column 2
  Slope of linear regression, mean of single experiment: 0.37
FtsZ filaments; 0.1µM, replicate column 3
  Slope of linear regression, mean of single experiment: 0.74
FtsZ filaments; 0.1µM, replicate column 4
  Slope of linear regression, mean of single experiment: 0.70
FtsZ filaments; 0.2 µM FtsA, mean
  Slope of linear regression FtsZ vs FtsA: 0.45
FtsZ filaments; 0.2µM, replicate column 1
  Slope of linear regression, mean of single experiment: 0.40
FtsZ filaments; 0.2µM, replicate column 2
  Slope of linear regression, mean of single experiment: 0.56
FtsZ filaments; 0.2µM, replicate column 3
  Slope of linear regression, mean of single experiment: 0.40
FtsZ filaments; 0.4µM, replicate column 1
  Slope of linear regression, mean of single experiment: 0.0747
FtsZ filaments; 0.4µM, replicate column 2
  Slope of linear regression, mean of single experiment: 0.0547
FtsZ filaments; 0.4µM, replicate column 3
  Slope of linear regression, mean of single experiment: 0.49
FtsZ filaments; 0.4µM, replicate column 4
  Slope of linear regression, mean of single experiment: 0.31
FtsZ filaments; 0.8 µM FtsA, mean
  Slope of linear regression FtsZ vs FtsA: 0.17
FtsZ filaments; 0.8µM, replicate column 1
  Slope of linear regression, mean of single experiment: 0.16
FtsZ filaments; 0.8µM, replicate column 2
  Slope of linear regression, mean of single experiment: 0.15
FtsZ filaments; 0.8µM, replicate column 3
  Slope of linear regression, mean of single experiment: 0.23
FtsZ filaments; 0.8µM, replicate column 4
  Slope of linear regression, mean of single experiment: 0.13
FtsZ filaments; + FtsN, 0.10 µM, mean
  Slope of linear regression: 0.81 a.u.
FtsZ filaments; + FtsN, 0.10 µM, replicate 1
  Slope of linear regression: 0.84 a.u.
FtsZ filaments; + FtsN, 0.10 µM, replicate 2
  Slope of linear regression: 0.82 a.u.
FtsZ filaments; + FtsN, 0.10 µM, replicate 3
  Slope of linear regression: 0.78 a.u.
FtsZ filaments; + FtsN, 0.20 µM, mean
  Slope of linear regression: 0.65 a.u.
FtsZ filaments; + FtsN, 0.20 µM, replicate 1
  Slope of linear regression: 0.62 a.u.
FtsZ filaments; + FtsN, 0.20 µM, replicate 2
  Slope of linear regression: 0.61 a.u.
FtsZ filaments; + FtsN, 0.20 µM, replicate 3
  Slope of linear regression: 0.72 a.u.
FtsZ filaments; + FtsN, 0.40 µM, mean
  Slope of linear regression: 0.35 a.u.
FtsZ filaments; + FtsN, 0.40 µM, replicate 1
  Slope of linear regression: 0.43 a.u.
FtsZ filaments; + FtsN, 0.40 µM, replicate 2
  Slope of linear regression: 0.47 a.u.
FtsZ filaments; + FtsN, 0.40 µM, replicate 3
  Slope of linear regression: 0.13 a.u.
FtsZ filaments; without FtsN, 0.10 µM, mean
  Slope of linear regression: 0.70 a.u.
FtsZ filaments; without FtsN, 0.10 µM, replicate 1
  Slope of linear regression: 0.52 a.u.
FtsZ filaments; without FtsN, 0.10 µM, replicate 2
  Slope of linear regression: 0.85 a.u.
FtsZ filaments; without FtsN, 0.10 µM, replicate 3
  Slope of linear regression: 0.71 a.u.
FtsZ filaments; without FtsN, 0.20 µM, mean
  Slope of linear regression: 0.59 a.u.
FtsZ filaments; without FtsN, 0.20 µM, replicate 1
  Slope of linear regression: 0.55 a.u.
FtsZ filaments; without FtsN, 0.20 µM, replicate 2
  Slope of linear regression: 0.56 a.u.
FtsZ filaments; without FtsN, 0.20 µM, replicate 3
  Slope of linear regression: 0.66 a.u.
FtsZ filaments; without FtsN, 0.40 µM, mean
  Slope of linear regression: 0.16 a.u.
FtsZ filaments; without FtsN, 0.40 µM, replicate 1
  Slope of linear regression: 0.24 a.u.
FtsZ filaments; without FtsN, 0.40 µM, replicate 2
  Slope of linear regression: 0.066 a.u.
FtsZ filaments; without FtsN, 0.40 µM, replicate 3
  Slope of linear regression: 0.18 a.u.
[1]; 0.1 µM FtsA, Exp. 1
  Single Molecule Diffusion Constant: 0.1660 µm2/s
[1]; 0.1µM FtsA, Exp. 2
  Single Molecule Diffusion Constant: 0.0799 µm2/s
[1]; 0.1 µM FtsA, Exp. 3
  Single Molecule Diffusion Constant: 0.1610 µm2/s
[1]; 0.1 µM FtsA
  Diffusion Coefficient: 0.14 ± 0.04 µm^2/s
[1]; 0.2 µM FtsA, Exp. 1
  Single Molecule Diffusion Constant: 0.0839 µm2/s
[1]; 0.2µM FtsA, Exp. 2
  Single Molecule Diffusion Constant: 0.0498 µm2/s
[1]; 0.2 µM FtsA, Exp. 3
  Single Molecule Diffusion Constant: 0.0248 µm2/s
[1]; 0.2 µM FtsA
  Single Molecule Diffusion Constant, mean: 0.053 µm2/s and 0.0528 µm2/s
[1]; 0.4 µM FtsA, Exp. 1
  Single Molecule Diffusion Constant: 0.0130 µm2/s
[1]; 0.4µM FtsA, Exp. 2
  Single Molecule Diffusion Constant: 0.0096 µm2/s
[1]; 0.4 µM FtsA, Exp. 3
  Single Molecule Diffusion Constant: 0.0225 µm2/s
[1]; 0.4 µM FtsA
  Single Molecule Diffusion Constant, mean: 0.015 µm2/s and 0.0150 µm2/s
[1]; 0.8 µM FtsA, Exp. 1
  Single Molecule Diffusion Constant: 0.0048 µm2/s
[1]; 0.8µM FtsA, Exp. 2
  Single Molecule Diffusion Constant: 0.0025 µm2/s
[1]; 0.8 µM FtsA, Exp. 3
  Single Molecule Diffusion Constant: 0.0035 µm2/s
[1]; 0.8 µM FtsA
  Diffusion Coefficient: 0.004 ± 0.001 µm^2/s
FtsZ; 0.1 µM FtsA, steady state about 15 min
  Pearson correlation coefficient (PCC) FtsA/FtsZ: 0.78 ± 0.04
FtsZ; 0.1µM FtsA, Exp. 2
  PCC FtsZ/FtsA: 0.79
FtsZ; 0.1µM FtsA, replicate 1 (row printed 'goo')
  PCC FtsZ/FtsA: 0.77
FtsZ; 0.2 µM FtsA, steady state about 15 min
  Pearson correlation coefficient (PCC) FtsA/FtsZ: 0.69 ± 0.06
FtsZ; 0.2µM FtsA, Exp. 2
  PCC FtsZ/FtsA: 0.62
FtsZ; 0.2µM FtsA, replicate 1 (row printed 'goo')
  PCC FtsZ/FtsA: 0.61
FtsZ; 0.4 µM FtsA, WT vs R286W p-value 1.28 × 10^−5
  Pearson correlation coefficient (PCC) FtsA/FtsZ: 0.32 ± 0.12
FtsZ; 0.4µM FtsA, Exp. 2
  PCC FtsZ/FtsA: 0.40
FtsZ; 0.4µM FtsA, replicate 1 (row printed 'goo')
  PCC FtsZ/FtsA: 0.43
FtsZ; 0.8 µM FtsA
  Pearson correlation coefficient (PCC) FtsA/FtsZ: 0.27 ± 0.09
FtsZ; 0.8µM FtsA, Exp. 2
  PCC FtsZ/FtsA: 0.29
FtsZ; 0.8µM FtsA, replicate 1 (row printed 'goo')
  PCC FtsZ/FtsA: 0.38
[2]; AMP PNP, 0.10 µM FtsA, replicate 1
  Normalized intensity: 0.07 a.u.
[2]; AMP PNP, 0.10 µM FtsA, replicate 2
  Normalized intensity: 0.13 a.u.
[2]; AMPPNP, 0.20 µM FtsA, summary value
  Normalized intensity: 0.62 a.u.
[2]; AMPPNP, 0.40 µM FtsA, summary value
  Normalized intensity: 0.75 a.u.
[2]; AMPPNP, 0.80 µM FtsA, summary value
  Normalized intensity: 1.00 a.u.
[2]; ATP, 0.10 µM FtsA, replicate 1
  Normalized intensity: 0.20 a.u.
[2]; ATP, 0.10 µM FtsA, replicate 2
  Normalized intensity: 0.48 a.u.
[2]; ATP, 0.10 µM FtsA, summary value
  Normalized intensity: 0.37 a.u.
[2]; ATP, 0.20 µM FtsA, summary value
  Normalized intensity: 0.67 a.u.
[2]; ATP, 0.40 µM FtsA, summary value
  Normalized intensity: 0.82 a.u.
[2]; ATP, 0.80 µM FtsA, summary value
  Normalized intensity: 0.95 a.u.
[2]; ATPgS, 0.20 µM FtsA, summary value
  Normalized intensity: 0.20 a.u.
[2]; ATPgS, 0.40 µM FtsA, summary value
  Normalized intensity: 0.21 a.u.
[2]; ATPgS, 0.80 µM FtsA, summary value
  Normalized intensity: 0.65 a.u.
